Laboratory results from patent US20240327454A1, “DETERGENT AND METHOD FOR PURIFYING A BIOTHERAPEUTIC” (MEDIMMUNE, LLC, priority 2020, published 2024).

What was measured:
[1] = test system: XMuLV; test: Viral inactivation by Laureth-9 in XMuLV-spiked BisAb or BisFusion conditioned media (Example 2); format: cell-based, murine xenotropic leukemia virus-related virus
Protocol: (§1) Harvest media was spiked with murine xenotropic leukemia virus-related virus (XMuLV) stock prior to the detergent spike.
(§2) Conditioned cell harvest media containing a monovalent bispecific human IgG1 monoclonal antibody (BisAb) was spiked with 8.5 logs of XMuLV. A sample of the virus spiked harvest media was collected and used as a hold control to determine the rate of viral inactivation without detergent.
(§3) A 10% (w/w) stock solution was made by dissolving detergent into 50 mM Tris pH 7.4. A cell harvest sample of BisAb media spiked with XMuLV was spiked to a 1% detergent concentration using an appropriate amount of the 10% stock solution. The hold control and reaction samples were incubated at room temperature. Samples were collected at 1, 10, 60, and 120 minutes and diluted 1:50 in McCoy medium to stop the viral inactivation reaction. Diluted samples and hold control were assayed for viral concentration using a plaque assay.
A study was performed essentially as described in Example 1 to examine the viral inactivation using detergent concentrations of 1% Brij L9 (Laureth-9, sourced from Croda International Plc., East Yorkshire, United Kingdom) and 1% Polidodecanol 600 (Laureth-9, sourced from Schärer & Schläpfer AG, Rothrist, Switzerland) for CHO-derived conditioned media for BisAb and 1% or 0.1% Brij L9 for CHO-derived conditioned media for a bispecific fusion protein (BisFusion).

[2] = test system: AAV6.2 cell paste; test: Detergent lysis of AAV6.2 cell paste slurry, lysate AAV titer by qPCR; format: cell-based; conditions: for Lysate AAV6 Titer: 0.5% detergent, AAV6 cell paste lot A8498, 1 hour at RT
Protocol: (§4) An AAV6.2 cell paste slurry was generated and stored at −80° C. Brij L9 (Laureth-9) was sourced from Croda International Plc. (East Yorkshire, United Kingdom). Triton X-100 was sourced from Spectrum Chemical (New Brunswick, NJ). Capto AVB resin was sourced from GE Healthcare (Piscataway, NJ). COSP filters were obtained from EMD Millipore (Burlington, MA). Sartopore 2 XLG, 0.8/0.2 um filters were obtained from Sartorius Stedim Biotech GmbH (Gottingen, Germany). All the buffer salts were sourced from Avantor Performance Chemicals (Center Valley, Pennsylvania).
(§5) For detergent lysis, the AAV6.2 cell paste was diluted to a 10% slurry with 20 mM Tris, 200 mM NaCl, 2 mM MgCl2, pH 7.5. 10% (w/w) detergent stock solution was spiked into cell slurry to bring final detergent concentration to 0.5% (v/w). Benzonase was spiked to 10 U/ml into cell slurry mixture and mixed slowly at RT for 1 hour.
(§6) AAV Purification was performed using a Capto AVB affinity column. Purification was controlled by Unicorn 7.0 software on an AKTA AVANT purchased from GE Healthcare (Piscataway, NJ). COSP POD filter was flushed with 20 mM Tris, 500 mM NaCl, 2 mM MgCl2, pH 7.5. 10% AAV6.2 cell lysate was clarified with COSP followed by Sartopore 2 XLG, 0.8/0.2 um filter. Capto AVB column was equilibrated with 20 mM Tris, 200 mM NaCl, 2 mM MgCl2, pH 7.5 for 3 column volumes (CV). Clarified cell lysate was loaded with residence time of 6 min. Column was re-equilibrated with 20 mM Tris, 200 mM NaCl, 2 mM MgCl2, pH 7.5 for 4 CV. Product was eluted from column with 50 mM citric acid, 500 mM NaCl, 2 mM MgCl2, pH 2.5. Eluate pH was adjusted to pH 8.0 with 1 M Tris/HCl, pH 8.0 AAV Titer was determined by centrifuging 10% lysate at 13,000 rpm for 10 min and collecting the supernatant. AAV titer was determined with in-house qPCR method.

[3] = test system: AAV6.2; test: AAV purification on Capto AVB after cell lysis, eluate titer and infectivity; conditions: for CaptoAVB Elu Infectivity / CaptoAVB Elu Titer: detergent cell lysis, cell paste lot A8489 (Brij-L9), A8102 (Triton X100)
Protocol: as §4, §5
For freeze-and-thaw lysis, the cell paste slurry was put through 2 freeze-thaw cycles at −80° C. and RT. AAV lysate was diluted to 10% slurry with 20 mM Tris, 200 mM NaCl, 2 mM MgCl2, pH 7.5. Benzonase was spiked to 10 U/ml into cell slurry mixture and mixed slowly at RT for 1 hour.
as §6

[4] = test system: XMuLV; test: Viral inactivation by 1% detergent in XMuLV-spiked BisAb cell harvest media, plaque assay (Example 1); format: cell-based, murine xenotropic leukemia virus-related virus; set-up: Virus concentration: unit not given here; conditions: for Log10 reduction value / Virus concentration: BisAb harvest media; for Virus concentration: room temperature; for viral inactivation kinetics: in words, compared to Laureth-9
Source text: The viral inactivation of four detergents was examined using a CHO-derived cell harvest material for a monovalent bispecific human IgG1 monoclonal antibody. Brij L9 (Laureth-9), Myrj S25, and Brij S20 were sourced from Croda International Plc. (East Yorkshire, United Kingdom). Polidocanol 600 (Laureth-9) was sourced from Schärer & Schläpfer AG (Rothrist, Switzerland).
as §1, §2, §3

[5] = test system: aquatic organisms; conditions: cited from earlier work
[6] = test system: enveloped virus; conditions: cited from earlier work
[7] = 0 min, 0.1% detergent, BisFusion
[8] = 10 min, 0.1% detergent, BisFusion
[9] = 10 min, 1% detergent, BisFusion
[10] = 60 min, 0.1% detergent, BisFusion
[11] = 60 min, 1% detergent, BisFusion
[12] = <1 min, 0.1% detergent, BisFusion
[13] = <1 min, 1% detergent, BisFusion

Row | Compound | Log10 reduction value ([1]; 0 min, 1% detergent, BisAb) [Log10] | Virus concentration ([1]; 0 min, 1% detergent, BisAb) | Log10 reduction value ([1]; 10 min, 1% detergent, BisAb) [Log10] | Virus concentration ([1]; 10 min, 1% detergent, BisAb) | Log10 reduction value ([1]; 60 min, 1% detergent, BisAb) [Log10] | Virus concentration ([1]; 60 min, 1% detergent, BisAb) | Log10 reduction value ([1]; <1 min, 1% detergent, BisAb) [Log10] | Virus concentration ([1]; <1 min, 1% detergent, BisAb) | Lysate AAV6 Titer [2] [Log10 vg/mL] | CaptoAVB Elu Infectivity [3] [Log10 TCID50/mL] | CaptoAVB Elu Titer [3] [Log10 vg/mL] | Log10 reduction value ([4]; 0 min) [Log10] | Virus concentration ([4]; 0 min) | Log10 reduction value ([4]; 10 min) [Log10] | Virus concentration ([4]; 10 min) | Log10 reduction value ([4]; 60 min) [Log10] | Virus concentration ([4]; 60 min) | Log10 reduction value ([4]; 120 min) [Log10] | Virus concentration ([4]; 120 min) | viral inactivation kinetics [4] | further results
1 | CCCCCCCCCCCCOCCOCCOCCOCCOCCOCCOCCOCCOCCO [Brij L9, 3,6,9,12,15,18,21,24,27-nonaoxanonatriacontan-1-ol] | 0 | 7.00 | >4.07 | <2.88 | >4.07 | <2.88 | >4.03 | <2.88 | 11.04 | 10.5 | 12.2 | 0 | 7.79 | >4.61 | <3.18 | >4.61 | <3.18 | >4.61 | <3.18 | improved, desirable viral inactivation kinetics | Log10 reduction value [1, 7]: 0 Log10; Virus concentration [1, 7]: 7.21; Log10 reduction value ([1]; 0 min, 1% detergent, BisFusion): 0 Log10; Virus concentration ([1]; 0 min, 1% detergent, BisFusion): 7.21; Log10 reduction value [1, 8]: >3.88 Log10; Virus concentration [1, 8]: <2.88; Log10 reduction value [1, 9]: >3.84 Log10; Virus concentration [1, 9]: <2.88; Log10 reduction value [1, 10]: >3.88 Log10; Virus concentration [1, 10]: <2.88; Log10 reduction value [1, 11]: >3.84 Log10; Virus concentration [1, 11]: <2.88; Log10 reduction value [1, 12]: >3.88 Log10; Virus concentration [1, 12]: <2.88; Log10 reduction value [1, 13]: >3.84 Log10; Virus concentration [1, 13]: <2.88; cell lysis for AAV purification ([2]; in words, compared with Triton X-100): as effective for cell lysis for AAV purification as Triton X-100; impact on AAV infectivity ([3]; in words): does not show any negative impact
2 | CCCCCCCCCCCCOCCOCCOCCOCCOCCOCCOCCOCCOCCO [Polidodecanol 600, 3,6,9,12,15,18,21,24,27-nonaoxanonatriacontan-1-ol] | 0 | 7.00 | >4.07 | <2.88 | >4.07 | <2.88 | >4.03 | <2.88 | – | – | – | 0 | 7.79 | >4.61 | <3.18 | >4.61 | <3.18 | >4.61 | <3.18 | – | Log10 reduction value ([4]; <1 min): >4.61 Log10
3 | CC(C)(C)CC(C)(C)c1ccc(O)cc1 [octlyphenol] | – | – | – | – | – | – | – | – | – | – | – | – | – | – | – | – | – | – | – | – | endocrine disruption [5]: can behave as endocrine disrupters in aquatic organisms
4 | Triton X-100 [reference compound] | – | – | – | – | – | – | – | – | 11.03 | 9.8 | 11.8 | – | – | – | – | – | – | – | – | – | enveloped virus inactivation ([6]; diverse set of experimental conditions): greater than 4 logs; endocrine disruption [5]: can behave as endocrine disrupters in aquatic organisms
5 | polyoxyethylene (20) stearyl ether [Brij S20, reference compound] | – | – | – | – | – | – | – | – | – | – | – | 0 | 7.79 | 2.90 | 4.89 | >4.61 | <3.18 | >4.61 | <3.18 | significantly slower | Log10 reduction value ([4]; <1 min): 0.89 Log10; Virus concentration ([4]; <1 min): 6.9
6 | polyoxyethylene (23) lauryl ether [Brij 35] | – | – | – | – | – | – | – | – | – | – | – | – | – | – | – | – | – | – | – | – | effectiveness for viral inactivation ([6]; finding of Conley et al. (2017)): not effective for viral inactivation
